Measured values from ChEMBL document CHEMBL1151229, “Isolation and structure of gustastatin from the Brazilian nut tree Gustavia hexapetala” (2004).
Converted amounts (≈) assume the structure as drawn.

Tests used:
Type in all cases: functional
DU-145 = assay: Cytotoxicity against human DU145 cells
P388 = assay: Cytotoxicity against mouse P388 cells
KM-20L2 = assay: Cytotoxicity against human KM20L2 cells
MCF7 = assay: Cytotoxicity against human MCF7 cells
NCI-H460 = assay: Cytotoxicity against human NCI-H460 cells
BXPC-3 = assay: Cytotoxicity against human BxPC3 cells
SF-268 = assay: Cytotoxicity against human SF268 cells

C[C@H]1[C@@H](O)[C@@H](C)[C@@]2(O[C@@H]1C)[C@@H](C)[C@H]1OC(=O)[C@]2(C)C(=O)[C@@H]1C [PORTENTOL]
GI50 (DU-145): 1.3 µg/mL (≈ 4.19 µM) | GI50 (P388): > 10 µg/mL | GI50 (KM-20L2): > 10 µg/mL | GI50 (MCF7): > 10 µg/mL | GI50 (NCI-H460): 4.7 µg/mL (≈ 15.1 µM) | GI50 (BXPC-3): 7 µg/mL (≈ 22.6 µM) | GI50 (SF-268): 4.7 µg/mL (≈ 15.1 µM)

CC1(C)C=Cc2cc3ccc(=O)oc3cc2O1 [XANTHYLETIN]
GI50 (DU-145): 2.9 µg/mL (≈ 12.7 µM) | GI50 (P388): > 10 µg/mL | GI50 (KM-20L2): 6.3 µg/mL (≈ 27.6 µM) | GI50 (MCF7): 5.9 µg/mL (≈ 25.8 µM) | GI50 (NCI-H460): 9 µg/mL (≈ 39.4 µM) | GI50 (BXPC-3): 5.5 µg/mL (≈ 24.1 µM) | GI50 (SF-268): 11.2 µg/mL (≈ 49.1 µM)

CCCCCC(=O)Cc1cc(OC)cc(O)c1C(=O)Oc1cc(CC(=O)CCCCC)c(C(=O)OC)c(OC)c1 [GUSTASTATIN]
GI50 (DU-145): 5.2 µg/mL (≈ 9.34 µM) | GI50 (P388): > 10 µg/mL | GI50 (KM-20L2): > 10 µg/mL | GI50 (MCF7): 6.4 µg/mL (≈ 11.5 µM) | GI50 (NCI-H460): 5.1 µg/mL (≈ 9.16 µM) | GI50 (BXPC-3): > 10 µg/mL | GI50 (SF-268): 7.9 µg/mL (≈ 14.2 µM)

COc1cc(C)c2c(=O)c3c(O)cc(OC)cc3oc2c1 [LICHEXANTHONE]
GI50 (DU-145): 3.7 µg/mL (≈ 12.9 µM) | GI50 (P388): > 10 µg/mL | GI50 (KM-20L2): 2 µg/mL (≈ 6.99 µM) | GI50 (MCF7): 4.1 µg/mL (≈ 14.3 µM) | GI50 (NCI-H460): 7.1 µg/mL (≈ 24.8 µM) | GI50 (BXPC-3): 2.5 µg/mL (≈ 8.73 µM) | GI50 (SF-268): 3 µg/mL (≈ 10.5 µM)

C=C(C)[C@@H]1CC[C@]2(C(=O)O)CC[C@]3(C)[C@H](CC[C@@H]4[C@@]5(C)CC[C@H](O)C(C)(C)[C@@H]5CC[C@]43C)[C@@H]12 [BETULINIC ACID]
GI50 (DU-145): 5 µg/mL (≈ 10.9 µM) | GI50 (P388): > 10 µg/mL | GI50 (KM-20L2): 3.4 µg/mL (≈ 7.44 µM) | GI50 (MCF7): 1.1 µg/mL (≈ 2.41 µM) | GI50 (NCI-H460): 4.7 µg/mL (≈ 10.3 µM) | GI50 (BXPC-3): 0.85 µg/mL (≈ 1.86 µM) | GI50 (SF-268): 0.86 µg/mL (≈ 1.88 µM)
